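1) Cells in 96-well plates. 2) Compound, 48 h, 5 concentrations. 3) Linear interpolation between surrounding doses. 4) Unreached endpoint = highest concentration. At the GI50, growth is halved. Definition used: TGI = concentration required for complete inhibition of growth.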
Legend:
Assay in all cases: growth of human tumour cells (NCI), 48 h
MALME-3M melanoma = system: MALME-3M melanoma
UACC-62 melanoma = system: UACC-62 melanoma
SK-MEL-5 melanoma = system: SK-MEL-5 melanoma
M14 melanoma = system: M14 melanoma
LOX IMVI melanoma = system: LOX IMVI melanoma
OVCAR-8 ovarian = system: OVCAR-8 ovarian
KM12 colon = system: KM12 colon
HOP-92 NSCLC = system: HOP-92 NSCLC
RPMI-8226 leukemia = system: RPMI-8226 leukemia
SR leukemia = system: SR leukemia

| SMILES | TGI (MALME-3M melanoma) [µM] | TGI (UACC-62 melanoma) [µM] | TGI (SK-MEL-5 melanoma) [µM] | TGI (M14 melanoma) [µM] | TGI (LOX IMVI melanoma) [µM] | TGI (OVCAR-8 ovarian) [µM] | TGI (KM12 colon) [µM] | TGI (HOP-92 NSCLC) [µM] | TGI (RPMI-8226 leukemia) [µM] | TGI (SR leukemia) [µM] | GI50 (MALME-3M melanoma) [µM] | GI50 (UACC-62 melanoma) [µM] | GI50 (SK-MEL-5 melanoma) [µM] | GI50 (M14 melanoma) [µM] | GI50 (LOX IMVI melanoma) [µM] | GI50 (OVCAR-8 ovarian) [µM] | GI50 (KM12 colon) [µM] | GI50 (HOP-92 NSCLC) [µM] | GI50 (RPMI-8226 leukemia) [µM] | GI50 (SR leukemia) [µM] |
| --- | --- | --- | --- | --- | --- | --- | --- | --- | --- | --- | --- | --- | --- | --- | --- | --- | --- | --- | --- | --- |
| COC(=O)c1ccc(CS(=O)(=O)c2ccccc2)cc1 | > 100 | > 100 | > 100 | > 100 | > 100 | > 100 | > 100 | > 100 | > 100 | > 100 |  |  |  |  |  |  |  |  |  |  |
| COc1ccc2nc(-c3ccc(Cl)cc3)cc(-c3nnc(SCC(=O)Nc4ccc(/C(C)=N\O)cc4)o3)c2c1 | 3.97 | 9.93 | 7.52 | 7.58 | 6.92 | 2.78 | 5.46 | 5.26 | > 50 | > 50 | 1.28 | 2.89 | 1.71 | 1.81 | 1.76 | 1.15 | 1.53 | 1.77 | 2.18 | 1.72 |
| CS(=O)(=O)c1nccc(-c2c(-c3cccc(OCc4ccccc4)c3)nc3sccn23)n1 | > 100 | > 100 | 10 | > 100 | > 100 | > 100 | 9.98 | > 100 | > 32.3 | > 100 | 16.4 | 13.8 | 1.39 | 13.9 | 5.13 | > 27.4 | 4.64 | 6.38 | 9.24 | 4.49 |
| COc1ccc(C(=O)OC2C(OC3C(O)COC(O[C@H]4C[C@H]5[C@@H]6CC=C7C[C@@H](O)CC[C@]7(C)[C@H]6CC[C@]5(C)[C@H]4[C@H](C)C(=O)CCC(C)C)C3OC(=O)C(C)C)OCC(O)C2O)cc1 (stereo not given in full) | 2.88 | 0.0185 | 0.36 | 0.0389 | 0.0488 | 8.4 | 4.77 | 3.1 | 0.01 | 3.34 | 0.0411 | 0.00668 | 0.019 | 0.00812 | 0.0107 | 2.82 | 0.0707 | 0.0208 | < 0.00275 | 0.0121 |
| C=C(c1ccc(OC)c(/C=C/C(=O)c2cc(OC)c(OC)c(OC)c2)c1)c1cc(OC)c(OC)c(OC)c1 | 4.45 | 2.16 | 2.5 | 4.43 | 1.95 | 11.9 | 2.72 | 6.9 | 3.06 | 8.79 | 1.88 | 0.498 | 1.18 | 1.59 | 0.582 | 0.716 | 1.16 | 1.14 | 0.453 | 0.46 |
| COC1=CC(=O)c2c(O)c3c(c(O)c2C1=O)OC1(Oc2c(cc4cc(C)oc(=O)c4c2O)CC1O)C3O (stereo not given) | 10.3 | > 100 | 95 | > 100 | > 100 | > 100 | > 100 | > 100 | > 100 | > 100 |  |  |  |  |  |  |  |  |  |  |
| CC(C)COC(=O)N1N=NC2C3CC(=O)C(O3)C21 (stereo not given) | > 100 | > 100 | > 100 | > 100 | > 100 | > 100 | > 100 | > 100 | > 100 | > 100 |  |  |  |  |  |  |  |  |  |  |
| CC(=O)OC1COC(n2c(O)c(N=Nc3ccc([N+](=O)[O-])cc3)c3cc(Br)c([N+](=O)[O-])cc32)C(OC(C)=O)C1OC(C)=O (stereo not given) | > 100 | 36.6 | > 100 | > 100 | > 100 | > 100 | > 100 | 78 | > 100 | > 100 |  |  |  |  |  |  |  |  |  |  |
| C=C(c1ccccc1)[C@@]1(O)CCCC[C@H]1NC(c1ccccc1)c1ccccc1 | 30.7 | 27.8 | 22.8 | 27.6 | 21.9 | 28.1 | 30.9 | 26.1 | 25.5 | 6.98 |  |  |  |  |  |  |  |  |  |  |
| Nc1nc(=O)c2[nH]cnc2n1O | > 100 | > 100 | > 100 | > 100 | > 100 | > 100 | > 100 | > 100 | > 100 | > 100 |  |  |  |  |  |  |  |  |  |  |

From PubChem BioAssay (NCI)
